Test results published in PubChem BioAssay (NCI).
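Interpolation was linear, between the two tested concentrations surrounding the appropriate level; five concentrations were tested over 48 hours in 96-well plates. At the GI50, growth is halved. TGI denotes the concentration required for complete inhibition of growth.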

Columns and labels:
Assay in all cases: DTP human tumour cell line panel, 48 h
SF-539 CNS = tested on: SF-539 CNS
NCI-H522 lung = tested on: NCI-H522 lung
DU-145 prostate = tested on: DU-145 prostate
CCRF-CEM leukemia = tested on: CCRF-CEM leukemia
SW-620 colon = tested on: SW-620 colon
HOP-62 NSCLC = tested on: HOP-62 NSCLC
SF-295 CNS = tested on: SF-295 CNS
IGROV1 ovarian = tested on: IGROV1 ovarian
SK-MEL-5 melanoma = tested on: SK-MEL-5 melanoma
UACC-257 melanoma = tested on: UACC-257 melanoma

Compound | TGI (SF-539 CNS) [µM] | TGI (NCI-H522 lung) [µM] | TGI (DU-145 prostate) [µM] | TGI (CCRF-CEM leukemia) [µM] | TGI (SW-620 colon) [µM] | TGI (HOP-62 NSCLC) [µM] | TGI (SF-295 CNS) [µM] | TGI (IGROV1 ovarian) [µM] | TGI (SK-MEL-5 melanoma) [µM] | TGI (UACC-257 melanoma) [µM] | GI50 (SF-539 CNS) [µM] | GI50 (NCI-H522 lung) [µM] | GI50 (DU-145 prostate) [µM] | GI50 (CCRF-CEM leukemia) [µM] | GI50 (SW-620 colon) [µM] | GI50 (HOP-62 NSCLC) [µM] | GI50 (SF-295 CNS) [µM] | GI50 (IGROV1 ovarian) [µM] | GI50 (SK-MEL-5 melanoma) [µM] | GI50 (UACC-257 melanoma) [µM]
NS(=O)(=O)c1ccc(NC(=O)c2ccc3nc4ccccc4c(Nc4ccc(S(N)(=O)=O)cc4)c3c2)cc1 | > 100 | > 100 | > 100 | > 100 | > 100 | > 100 | > 100 | > 100 | > 100 | > 100 | – | – | – | – | – | – | – | – | – | –
O=C(/C=C/c1cccc(Br)c1)N1CCN(CCOC(c2ccccc2)c2ccccc2)CC1 | 39.1 | > 100 | > 100 | 39.8 | > 100 | > 100 | > 100 | > 100 | 30.7 | > 100 | – | – | – | – | – | – | – | – | – | –
CCCCCCc1cc2cc(C(=O)Nc3cccc(F)c3)c(=N)oc2cc1O | 19.2 | 5.33 | 12.2 | 4.97 | > 100 | 17.7 | 15.9 | 4 | 2.85 | 11.9 | – | – | – | – | – | – | – | – | – | –
CCOc1cc2c(cc1O)C(=O)C[C@@H]1[C@@H]2CC[C@]2(C)[C@@H](O)CC[C@@H]12 | 0.487 | 3.2 | > 51.9 | > 100 | > 100 | > 100 | 9.52 | > 30.3 | 7.11 | > 100 | – | – | – | – | – | – | – | – | – | –
NC1NCCC(=O)N1CCc1c[nH]c2ccccc12 (stereo not given) | 31.5 | > 100 | 63 | 51.9 | 42 | 43.2 | 64.6 | 43.1 | 30.8 | 32.1 | – | – | – | – | – | – | – | – | – | –
Cc1cc(N=Cc2c(CO)cnc(C)c2O)c(N=Cc2c(CO)cnc(C)c2O)cc1C | > 100 | > 100 | > 100 | 80 | > 100 | > 100 | > 100 | > 100 | > 100 | > 100 | – | – | – | – | – | – | – | – | – | –
CN(/N=C/C=N/N(C)C1=NCCN1)C1=NCCN1 | > 100 | > 100 | > 100 | > 100 | > 100 | > 100 | > 100 | > 100 | > 100 | > 100 | – | – | – | – | – | – | – | – | – | –
c1cc(CSc2ncnc3nc[nH]c23)ccn1 | > 100 | > 100 | > 100 | > 100 | > 100 | > 100 | > 100 | > 100 | > 100 | > 100 | – | – | – | – | – | – | – | – | – | –
OC(Cc1cc(CC(O)(C(F)(F)F)C(F)(F)F)nc(CC(O)(C(F)(F)F)C(F)(F)F)c1)(C(F)(F)F)C(F)(F)F | 3.44 | 8.98 | 7.09 | > 10 | > 10 | 3.63 | 2.58 | 5.58 | 2.84 | 5.26 | – | – | – | – | – | – | – | – | – | –
CC(C)CC1N=C(OCc2ccccc2)OC1=O (stereo not given) | > 100 | > 100 | > 100 | > 100 | > 100 | > 100 | > 100 | > 100 | > 100 | > 100 | – | – | – | – | – | – | – | – | – | –
CCCCCCCCCCCCCCCCCCOc1ccccc1COP(=O)(O)OOCC[N+](C)(C)C | 3.02 | 13.1 | 7.43 | 2.02 | 5.36 | 15.4 | 4.32 | 1.5 | 1.5 | 6.45 | 1.19 | 1.73 | 1.88 | 0.751 | 1.43 | 2.19 | 1.23 | 0.738 | 0.813 | 1.54
CC1(C)[C@H]2Cc3cc4nc5ccccn5c4cc3[C@@H]1C2 | 33.6 | 21.9 | 41 | 75.1 | 52.5 | 39.7 | 30.8 | 43 | 34.3 | 34.2 | – | – | – | – | – | – | – | – | – | –
Cc1cc(=O)oc2c(C)c3oc(CBr)cc3cc12 | 50.7 | 30.1 | > 100 | 54.2 | 30.2 | 33.6 | 34.3 | 33.3 | 26 | 52.5 | – | – | – | – | – | – | – | – | – | –
C#CCNC(=O)CC[C@@H](C)[C@H]1CC[C@H]2[C@@H]3CC[C@@H]4CC(=O)CC[C@]4(C)[C@H]3CC[C@]12C | 30.4 | 16.6 | 35.1 | 24.1 | 43.7 | 40.4 | 49.4 | 3.13 | 23.2 | 42.3 | 14.1 | 3.69 | 14.8 | 4.39 | 17.8 | 16.6 | 19.3 | 0.649 | 8.71 | 13.2
CN1CCc2c(sc3ncn(Nc4ccc(F)cc4)c(=N)c23)C1 | > 100 | > 100 | > 100 | > 100 | > 100 | > 100 | > 100 | > 100 | > 100 | > 100 | – | – | – | – | – | – | – | – | – | –
CC(C)=CCc1cc(/C=C/C(=O)O)cc(CC=C(C)C)c1O | > 100 | > 100 | > 100 | > 100 | > 100 | > 100 | > 100 | > 100 | > 100 | > 100 | – | – | – | – | – | – | – | – | – | –
O=C(O)c1ccc(Nc2cnc3cc(C(F)(F)F)ccc3n2)cc1 | > 100 | 60.6 | > 100 | > 100 | > 100 | > 100 | > 100 | > 100 | > 100 | > 100 | – | – | – | – | – | – | – | – | – | –
CN1CCN(c2n[nH]c(=O)c3c2nnn3C2CCCCC2)CC1 | > 100 | > 100 | > 100 | > 100 | > 100 | > 100 | > 100 | > 100 | > 100 | > 100 | – | – | – | – | – | – | – | – | – | –
Nc1ncnc2c1ccn2-c1cccc(NC(=O)c2ccc(N3CCOCC3)c(C(F)(F)F)c2)c1 | 15.4 | 5.2 | 12.1 | 11.8 | 17.8 | 15.5 | 7.31 | 33.2 | 13.2 | 22.1 | 2.39 | 1.74 | 3.2 | 2.07 | 4.23 | 3.62 | 2.44 | 3.83 | 2.56 | 4.99
O=C1CN(c2ccccc2)C(=O)CN1NCNN1CC(=O)N(c2ccccc2)CC1=O | > 100 | > 100 | > 100 | > 100 | > 100 | > 100 | > 100 | > 100 | > 100 | > 100 | – | – | – | – | – | – | – | – | – | –
Cc1cccc(N=N/C(=N\NC(=O)c2cc(Cl)ccc2O)c2ccc(N(CCC#N)CCC#N)cc2C)c1 | > 100 | 72.6 | > 100 | 34.3 | > 100 | > 100 | > 100 | 43.6 | > 100 | 97.6 | – | – | – | – | – | – | – | – | – | –
CC(C)c1c(O[Si](C(C)C)(C(C)C)C(C)C)cc2c(c1O)CC[C@H]1C(C)(C)CCC[C@]21C | > 100 | > 100 | > 100 | > 100 | > 100 | > 100 | > 100 | > 100 | > 100 | > 100 | – | – | – | – | – | – | – | – | – | –
O=C(CC(=O)N1N=C(N(c2ccccc2)c2ccccc2)CC1c1ccccc1)Nc1cccc(Cl)c1 (stereo not given) | > 100 | > 100 | > 100 | > 100 | > 100 | > 100 | > 100 | > 100 | > 100 | > 100 | – | – | – | – | – | – | – | – | – | –
CC(C)C(=O)/C=C/c1c(Cl)cccc1Cl | 7.44 | 3.11 | 11.8 | > 100 | 9.13 | 17.7 | 24.3 | 14.2 | 18.2 | 20.5 | – | – | – | – | – | – | – | – | – | –
COc1ccc2nc3cc(Cl)ccc3c(NCCCCCC(=O)NC(COc3ccc4ccc5cccnc5c4n3)COc3ccc4ccc5cccnc5c4n3)c2c1 | 30.6 | 81.1 | 23.6 | 10.5 | 33 | > 100 | > 100 | 37.4 | 30.4 | 42.8 | – | – | – | – | – | – | – | – | – | –
COc1cc(OC)c(/C=N\Nc2nc3ccccc3c(=O)n2-c2ccccc2)c(OC)c1 | 39.3 | > 100 | > 94.1 | 51.6 | > 100 | 47.7 | 65.1 | > 100 | > 79.7 | > 76.5 | – | – | – | – | – | – | – | – | – | –
Cn1c(=O)c2c(=O)cc(N)[nH]c2n(C)c1=O | > 100 | > 100 | > 100 | > 100 | > 100 | > 100 | > 100 | > 100 | > 100 | > 100 | – | – | – | – | – | – | – | – | – | –
O=C(OCC(OC(=O)c1ccccc1)C1CC(C2(O)CCCCC2)C(=O)O1)c1ccccc1 (stereo not given) | > 25 | > 25 | > 25 | > 25 | > 25 | > 25 | > 25 | > 25 | > 25 | > 25 | – | – | – | – | – | – | – | – | – | –
C=C1CC[C@@H]2[C@](C)(COC(=O)CCC(=O)O)CCC[C@@]2(C)[C@@H]1CCC1=CC(=O)OC1 | > 100 | > 100 | 38.7 | > 100 | > 100 | > 100 | > 100 | > 100 | > 100 | > 100 | – | – | – | – | – | – | – | – | – | –
